# Assay results published in paper PMC6052345, “Functional Analysis of the Chemosensory Protein MsepCSP8 From the Oriental Armyworm Mythimna separata” (Frontiers in Physiology, 2018).
# Where two headings read alike, the source gives them in different places.
# Target: MsepCSP8 (Mythimna separata, UniProt A0A1V1WC03)
# Experiment: Fluorescence competitive binding assay with 1-NPN as fluorescent probe
# Details: for IC50: displacement of 1-NPN; for Ki: calculated from IC50; for binding affinity to MsepCSP8 in words: discussion of Table 1, pH not stated; for Kd: dissociation constant, saturation and Scatchard plot
# Description: The expressed protein was obtained in soluble form in the supernatant, and purification was accomplished using a Ni affinity chromatography column (GE Healthcare, Uppsala, Sweden). Bound protein was eluted by digestion with recombinant bovine enterokinase at 26°C for 15 h to remove the His-tag. Expression and purification were verified by 15% sodium dodecyl sulfate-polyacrylamide gel electrophoresis (SDS-PAGE), and protein concentration was measured as described by [Cao et al. (2017)]. Dialysis of purified protein was carried out in 30 mM Tris-HCl buffer [Tris(hydroxymethyl)aminomethane] at pH 7.4 and pH 5.0 before fluorescence binding assays, and protein was stored at -80°C until use.
# Fluorescence competitive binding assays were performed to determine the binding affinity of MsepCSP8 for 56 ligands using N-phenyl-1-naphthylamine (1-NPN) as a fluorescent probe. Stock solutions of ligands were prepared in spectrophotometric-grade methanol. […] Mixtures of 1-NPN and protein were excited at 337 nm wavelength, and emission spectra were recorded from 360 to 600 nm using a fluorescence spectrophotometer (RF-5301PC Shimadzu, Kyoto, Japan). Binding of selected ligands with MsepCSP8 (1:1 protein:ligand stoichiometry) was evaluated using 1-NPN as a fluorescent probe, with the final concentration of the product ranging from 0 to 20 μM. […] Three independent measurements were made for all experiments. The binding affinity (Ki) of MsepCSP8 for all tested ligands was calculated based on IC50 values as follows:
# Ki=IC50/(1 + [1−NPN]/K1–NPN)
# where [1-NPN] is the free concentration of 1-NPN, and K1-NPN is the dissociation constant of the complex of MsepCSP8 and 1-NPN.
# Chain of MsepCSP8 (A0A1V1WC03 entry or part of it): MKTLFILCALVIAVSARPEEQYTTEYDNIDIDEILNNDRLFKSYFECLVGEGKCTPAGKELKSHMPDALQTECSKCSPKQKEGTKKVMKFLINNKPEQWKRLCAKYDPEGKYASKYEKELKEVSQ
compound,measurement,setting,value
C=CC(C)(O)CCC=C(C)CCC=C(C)C (mixture of isomers) [Nerolidol],IC50,"IC50, pH 5.0",15.4 µM
same,IC50,"IC50, pH 7.4",15 µM
same,Ki,"Ki, pH 5.0",11.5 µM
same,Ki,"Ki, pH 7.4",10.5 µM
"CC1=CCC2C(C1)C2(C)C (single isomer, unassigned; (+)) [(+)-3-Carene]",binding affinity to MsepCSP8 in words,,high binding affinities
same,Ki,"pH 5.0, read-out: Ki",13.2 µM
same,IC50,"pH 5.0, read-out: IC50",17.7 µM
same,Ki,"pH 7.4, read-out: Ki",9.42 µM
same,IC50,"pH 7.4, read-out: IC50",13.4 µM
"CC1(C)CCC[C@@]2(C)[C@@H]3CC4C([C@@H]31)C42C (single isomer, unassigned; (+)) [(+)-Longicyclene]",Ki,"pH 5.0, read-out: Ki",295 µM
same,IC50,"pH 5.0, read-out: IC50",395 µM
same,Ki,"pH 7.4, read-out: Ki",28.2 µM
same,IC50,"pH 7.4, read-out: IC50",40.1 µM
"C=C(C)C1CCC2(C)OC2C1 (single isomer, unassigned; (-)) [(–)-Limonene oxide]",Ki,"pH 5.0, read-out: Ki",35 µM
same,IC50,"pH 5.0, read-out: IC50",46.9 µM
same,Ki,"pH 7.4, read-out: Ki",12.3 µM
same,IC50,"pH 7.4, read-out: IC50",17.5 µM
"c1ccc(Nc2cccc3ccccc23)cc1 [1-NPN, N-phenyl-1-naphthylamine, reference compound]",Kd,pH 5.0,2.93 µM
same,Kd,pH 7.4,2.41 µM
C=CC(O)CCCCC (stereo not drawn) [1-Octen-3-ol],IC50,"IC50, pH 5.0",13.2 µM
same,IC50,"IC50, pH 7.4",8.25 µM
same,Ki,"Ki, pH 5.0",9.88 µM
same,Ki,"Ki, pH 7.4",5.79 µM
same,binding affinity to MsepCSP8 in words,,bound strongly
CCCCCC(C)O (stereo not drawn) [2-Heptanol],IC50,"IC50, pH 5.0",25.6 µM
same,IC50,"IC50, pH 7.4",23.8 µM
same,Ki,"Ki, pH 5.0",19.1 µM
same,Ki,"Ki, pH 7.4",16.7 µM
CCC(C)C=O (stereo not drawn) [2-Methylbutyraldehyde],IC50,"IC50, pH 5.0",21.4 µM
same,IC50,"IC50, pH 7.4",13.8 µM
same,Ki,"Ki, pH 5.0",16 µM
same,Ki,"Ki, pH 7.4",9.66 µM
same,binding affinity to MsepCSP8 in words,,high affinities
CCCCCCCCCC(C)=O [2-Undecanone],IC50,"IC50, pH 5.0",22.3 µM
same,IC50,"IC50, pH 7.4",35.5 µM
same,Ki,"Ki, pH 5.0",16.6 µM
same,Ki,"Ki, pH 7.4",24.9 µM
CCC(O)CC [3-Pentanol],IC50,"IC50, pH 5.0",17.3 µM
same,IC50,"IC50, pH 7.4",16 µM
same,Ki,"Ki, pH 5.0",12.9 µM
same,Ki,"Ki, pH 7.4",11.3 µM
Cc1ccc(C(C)C)cc1 [4-Isopropyltoluene],IC50,"IC50, pH 5.0",7.72 µM
same,IC50,"IC50, pH 7.4",18 µM
same,Ki,"Ki, pH 5.0",5.76 µM
same,Ki,"Ki, pH 7.4",12.6 µM
CC1=CC[C@@H]2[C@@H]3[C@H]1[C@@]2(C)CCCC3(C)C [(+)-α-longipinene],binding affinity to MsepCSP8 in words,,high binding affinities
same,Ki,"pH 5.0, read-out: Ki",10.8 µM
same,IC50,"pH 5.0, read-out: IC50",14.4 µM
same,Ki,"pH 7.4, read-out: Ki",9.86 µM
same,IC50,"pH 7.4, read-out: IC50",14.1 µM
C=C1CC[C@@H]2C[C@H]1C2(C)C [(R)-(+)-β-pinene],binding affinity to MsepCSP8 in words,,high binding affinities
same,Ki,"pH 5.0, read-out: Ki",19.7 µM
same,IC50,"pH 5.0, read-out: IC50",26.4 µM
same,Ki,"pH 7.4, read-out: Ki",9.73 µM
same,IC50,"pH 7.4, read-out: IC50",13.9 µM
CC1=CC(=O)[C@H]2C[C@@H]1C2(C)C [(S)-(-)-verbenone],binding affinity to MsepCSP8 in words,,high binding affinities
same,Ki,"pH 5.0, read-out: Ki",16.1 µM
same,IC50,"pH 5.0, read-out: IC50",21.5 µM
same,Ki,"pH 7.4, read-out: Ki",9.27 µM
same,IC50,"pH 7.4, read-out: IC50",13.2 µM
C=C1CC[C@H]2O[C@]2(C)CC[C@@H]2[C@@H]1CC2(C)C [(–)-Caryophyllene oxide],IC50,"IC50, pH 5.0",10.3 µM
same,IC50,"IC50, pH 7.4",19.6 µM
same,Ki,"Ki, pH 5.0",7.67 µM
same,Ki,"Ki, pH 7.4",13.7 µM
CC/C=C\CCO [Cis-3-hexen-1-ol],IC50,"IC50, pH 5.0",29.8 µM
same,IC50,"IC50, pH 7.4",21.4 µM
same,Ki,"Ki, pH 5.0",22.3 µM
same,Ki,"Ki, pH 7.4",15 µM
CC/C=C\CCOC(C)=O [Cis-3-hexenyl acetate],IC50,"IC50, pH 5.0",24.6 µM
same,IC50,"IC50, pH 7.4",21 µM
same,Ki,"Ki, pH 5.0",18.4 µM
same,Ki,"Ki, pH 7.4",14.8 µM
CCCCCCCCCC=O [Decanal],IC50,"IC50, pH 5.0",31 µM
same,IC50,"IC50, pH 7.4",20.4 µM
same,Ki,"Ki, pH 5.0",23.2 µM
same,Ki,"Ki, pH 7.4",14.3 µM
CCCCCCCCCCCC=O [Dodecyl aldehyde],Ki,"pH 5.0, read-out: Ki",27.5 µM
same,IC50,"pH 5.0, read-out: IC50",36.9 µM
same,Ki,"pH 7.4, read-out: Ki",17.3 µM
same,IC50,"pH 7.4, read-out: IC50",24.6 µM
CCC/C=C/COC(C)=O [E-2-Hexen-1-ol acetate],IC50,"IC50, pH 5.0",62.8 µM
same,IC50,"IC50, pH 7.4",14.6 µM
same,Ki,"Ki, pH 5.0",46.9 µM
same,Ki,"Ki, pH 7.4",10.2 µM
CCCCCCCCCCCCCCCCCCCC [Eicosane],IC50,"IC50, pH 5.0",46.3 µM
same,IC50,"IC50, pH 7.4",48 µM
same,Ki,"Ki, pH 5.0",34.6 µM
same,Ki,"Ki, pH 7.4",33.7 µM
CCOC(C)=O [Ethyl acetate],IC50,"IC50, pH 5.0",29.2 µM
same,IC50,"IC50, pH 7.4",67.3 µM
same,Ki,"Ki, pH 5.0",21.8 µM
same,Ki,"Ki, pH 7.4",47.2 µM
CC12CCC(CC1)C(C)(C)O2 [Eucalyptol],IC50,"IC50, pH 5.0",88.1 µM
same,IC50,"IC50, pH 7.4",25.2 µM
same,Ki,"Ki, pH 5.0",65.7 µM
same,Ki,"Ki, pH 7.4",17.7 µM
CCCCCCCCCCCCCCCC [Hexadecane],IC50,"IC50, pH 5.0",10.3 µM
same,IC50,"IC50, pH 7.4",14.8 µM
same,Ki,"Ki, pH 5.0",7.65 µM
same,Ki,"Ki, pH 7.4",10.4 µM
CCCCCC [Hexane],IC50,"IC50, pH 5.0",26.3 µM
same,IC50,"IC50, pH 7.4",9.69 µM
same,Ki,"Ki, pH 5.0",19.6 µM
same,Ki,"Ki, pH 7.4",6.8 µM
same,binding affinity to MsepCSP8 in words,,bound highly
C=CC(C)(O)CCC=C(C)C (stereo not drawn) [Linalool],IC50,"IC50, pH 5.0",25 µM
same,IC50,"IC50, pH 7.4",14.5 µM
same,Ki,"Ki, pH 5.0",18.7 µM
same,Ki,"Ki, pH 7.4",10.1 µM
COC(=O)c1ccccc1 [Methyl benzoate],IC50,"IC50, pH 5.0",21.2 µM
same,IC50,"IC50, pH 7.4",12.5 µM
same,Ki,"Ki, pH 5.0",15.8 µM
same,Ki,"Ki, pH 7.4",8.8 µM
same,binding affinity to MsepCSP8 in words,,bound highly
C=CC(=C)CCC=C(C)C [Myrcene],IC50,"IC50, pH 5.0",17.4 µM
same,IC50,"IC50, pH 7.4",16.6 µM
same,Ki,"Ki, pH 5.0",13 µM
same,Ki,"Ki, pH 7.4",11.6 µM
CCCCCCCCCCCCCCCCCCC [Nonadecane],IC50,"IC50, pH 5.0",19.8 µM
same,IC50,"IC50, pH 7.4",25.1 µM
same,Ki,"Ki, pH 5.0",14.8 µM
same,Ki,"Ki, pH 7.4",17.6 µM
CCCCCCCCC=O [Nonanal],IC50,"IC50, pH 5.0",14.9 µM
same,IC50,"IC50, pH 7.4",12.7 µM
same,Ki,"Ki, pH 5.0",11.1 µM
same,Ki,"Ki, pH 7.4",8.92 µM
same,binding affinity to MsepCSP8 in words,,high affinities
C=CC(C)=CCC=C(C)C [Ocimene],Ki,"pH 5.0, read-out: Ki",11.6 µM
same,IC50,"pH 5.0, read-out: IC50",15.6 µM
same,Ki,"pH 7.4, read-out: Ki",11.7 µM
same,IC50,"pH 7.4, read-out: IC50",16.7 µM
CCCCCCCC [Octane],IC50,"IC50, pH 5.0",15.9 µM
same,IC50,"IC50, pH 7.4",37 µM
same,Ki,"Ki, pH 5.0",11.8 µM
same,Ki,"Ki, pH 7.4",26 µM
CCCCCCCCCCCCCCCCCCCCCCCCC [Pentacosane],IC50,"IC50, pH 5.0",11.2 µM
same,IC50,"IC50, pH 7.4",24.4 µM
same,Ki,"Ki, pH 5.0",8.36 µM
same,Ki,"Ki, pH 7.4",17.1 µM
C=C(C)[C@H]1CC=C(C)CC1 [R-(+)-Limonene],Ki,"pH 5.0, read-out: Ki",14.1 µM
same,IC50,"pH 5.0, read-out: IC50",18.9 µM
same,Ki,"pH 7.4, read-out: Ki",16.5 µM
same,IC50,"pH 7.4, read-out: IC50",23.5 µM
CCCCCCCCCCCCCC [Tetradecane],IC50,"IC50, pH 5.0",23.8 µM
same,IC50,"IC50, pH 7.4",17.9 µM
same,Ki,"Ki, pH 5.0",17.8 µM
same,Ki,"Ki, pH 7.4",12.6 µM
CCC/C=C/CO [Trans-2-hexen-1-ol],IC50,"IC50, pH 5.0",8.46 µM
same,IC50,"IC50, pH 7.4",23.8 µM
same,Ki,"Ki, pH 5.0",6.31 µM
same,Ki,"Ki, pH 7.4",16.7 µM
same,binding affinity to MsepCSP8 in words,,bound strongly
CCCCCCCCCCCCCCCCCCCCC [n-Heneicosane],IC50,"IC50, pH 5.0",36.5 µM
same,IC50,"IC50, pH 7.4",9.59 µM
same,Ki,"Ki, pH 5.0",27.2 µM
same,Ki,"Ki, pH 7.4",6.73 µM
same,binding affinity to MsepCSP8 in words,,bound highly
C/C1=C\CC/C(C)=C/CC(C)(C)/C=C/C1 [α-Humulene],Ki,"pH 5.0, read-out: Ki",17.2 µM
same,IC50,"pH 5.0, read-out: IC50",23.1 µM
same,Ki,"pH 7.4, read-out: Ki",13 µM
same,IC50,"pH 7.4, read-out: IC50",18.5 µM
